From doi:10.1101/2021.02.22.432404v1 (biorxiv, 2021)
pIC50: −log10 of the molar value.

Biological target: T1, E. coli thymidylate kinase (TMPK) (Escherichia coli, UniProt P0A720)
T1 sequence (P0A720 1-213): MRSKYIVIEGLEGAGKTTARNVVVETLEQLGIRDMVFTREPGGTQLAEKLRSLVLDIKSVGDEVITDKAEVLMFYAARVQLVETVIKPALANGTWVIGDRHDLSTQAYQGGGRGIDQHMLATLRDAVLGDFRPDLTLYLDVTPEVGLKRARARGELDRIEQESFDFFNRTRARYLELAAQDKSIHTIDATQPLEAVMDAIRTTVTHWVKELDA
Test: ATPlite luminescence assay, direction of ATP synthesis
Type: biochemical

pIC50 | SMILES
6.17 | CCOC(=O)COc1ccc(C=C2SC(=S)NC2=O)cc1OC [compound 31]
6.00 | C=CCOc1cccc(C=C2SC(=S)NC2=O)c1 [compound 13]
6.33 | CCOc1cc(C=C2SC(=S)NC2=O)ccc1OC(C)=O [compound 28]
6.60 | COc1cc(C=C2SC(=S)NC2=O)cc(OC)c1O [compound 27]

Second part, the molecule before the results:

SMILES | pIC50
COc1cc(C=C2SC(=S)NC2=O)ccc1OC(C)=O [compound 11] | 6.32
COc1cc(C=C2SC(=S)NC2=O)ccc1OC(C)C [compound 1] | 6.41
COc1ccc(C=C2SC(=S)NC2=O)cc1O [compound 2] | 5.60
CCOc1ccc(C=C2SC(S)=NC2=O)cc1OC [compound 9] | 6.39
COc1cc(C=C2SC(=S)NC2=O)ccc1O [compound 12] | 6.30
